Laboratory results as given in patent US20240208992A1, “MACROCYCLES AS CFTR MODULATORS” (Idorsia Pharmaceuticals Ltd, priority 2021, published 2024).

Molecular target: human F508del-CFTR (Homo sapiens, UniProt P13569, DEL508-508)
Assay: F508del-CFTR cell surface expression (corrector activity), DiscoveRx ß-galactosidase complementation chemiluminescence assay in recombinant U2OS cell line;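 also: U2OS cells co-expressing ProLink-tagged F508del-CFTR and a membrane-anchored enzyme acceptor, where more surface CFTR restores β-galactosidase activity measured by chemiluminescence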
[1] = EC50, F508del-CFTR cell surface expression, U2OS cells, 16h compound incubation, geomean values
[2] = U2OS, in relation to Emax of corrector lumacaftor (=100%), arithmetic mean values
[3] = EC50, F508del-CFTR cell surface expression, U2OS cell line, 16h compound incubation, geomean values
[4] = U2OS, in relation to the Emax of the corrector lumacaftor (=100%), U2OS cell line, 16h compound incubation, arithmetic mean values

Sequence of human F508del-CFTR (P13569 with tags, fused parts or gaps DEL508-508): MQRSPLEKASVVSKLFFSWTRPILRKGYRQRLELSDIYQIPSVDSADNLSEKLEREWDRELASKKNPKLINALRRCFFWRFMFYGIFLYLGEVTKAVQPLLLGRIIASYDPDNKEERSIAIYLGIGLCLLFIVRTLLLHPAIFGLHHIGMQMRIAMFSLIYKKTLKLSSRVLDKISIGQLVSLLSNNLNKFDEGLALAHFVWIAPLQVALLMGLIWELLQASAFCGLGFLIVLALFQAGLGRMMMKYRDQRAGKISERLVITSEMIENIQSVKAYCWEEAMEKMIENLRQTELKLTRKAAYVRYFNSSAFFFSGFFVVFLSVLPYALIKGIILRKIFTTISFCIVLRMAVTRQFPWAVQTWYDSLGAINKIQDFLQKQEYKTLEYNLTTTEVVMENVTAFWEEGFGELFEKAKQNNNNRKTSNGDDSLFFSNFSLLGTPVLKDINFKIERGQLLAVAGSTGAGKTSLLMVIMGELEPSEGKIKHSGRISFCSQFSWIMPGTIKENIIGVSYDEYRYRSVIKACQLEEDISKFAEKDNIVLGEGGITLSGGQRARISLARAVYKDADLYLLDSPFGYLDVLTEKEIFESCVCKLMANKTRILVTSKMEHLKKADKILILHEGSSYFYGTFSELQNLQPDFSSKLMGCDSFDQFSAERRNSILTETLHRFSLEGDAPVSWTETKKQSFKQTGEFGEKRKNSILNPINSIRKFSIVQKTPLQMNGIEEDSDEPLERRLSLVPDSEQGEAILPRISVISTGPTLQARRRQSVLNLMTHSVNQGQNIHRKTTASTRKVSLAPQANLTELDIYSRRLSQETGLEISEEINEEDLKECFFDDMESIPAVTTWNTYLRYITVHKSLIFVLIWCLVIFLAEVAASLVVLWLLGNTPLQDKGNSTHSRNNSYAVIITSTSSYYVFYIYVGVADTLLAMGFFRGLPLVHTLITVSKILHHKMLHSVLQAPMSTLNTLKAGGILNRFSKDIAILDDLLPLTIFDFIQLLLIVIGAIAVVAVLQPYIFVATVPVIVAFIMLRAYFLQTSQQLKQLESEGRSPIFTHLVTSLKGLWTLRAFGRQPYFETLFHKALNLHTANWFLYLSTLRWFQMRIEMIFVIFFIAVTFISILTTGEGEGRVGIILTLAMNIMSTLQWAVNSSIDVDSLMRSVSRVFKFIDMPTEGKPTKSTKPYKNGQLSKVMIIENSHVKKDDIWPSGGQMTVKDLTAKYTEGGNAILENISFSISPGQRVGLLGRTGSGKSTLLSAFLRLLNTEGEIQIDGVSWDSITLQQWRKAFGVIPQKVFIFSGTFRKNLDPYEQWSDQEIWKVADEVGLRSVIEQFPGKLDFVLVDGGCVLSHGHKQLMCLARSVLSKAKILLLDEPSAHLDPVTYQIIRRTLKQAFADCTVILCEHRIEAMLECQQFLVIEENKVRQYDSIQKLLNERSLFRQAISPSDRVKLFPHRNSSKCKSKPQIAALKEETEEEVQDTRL

Row | SMILES | EC50 [1] [nM] | Emax [2] [%] | EC50 [3] [nM] | Emax [4] [%] | other results
1 | CC(C)C[C@H]1C(=O)N2CCCC[C@@H]2C(=O)N[C@H](Cc2ccccc2)COc2cnc3c(F)cccc3c2C(=O)N[C@H](C(=O)NCCc2nc(C3CC3)no2)CC(=O)N1C [Example 501, (9S,13S,19aR,22R)-22-benzyl-N-(2-(3-cyclopropyl-1,2,4-oxadiazol-5-yl)ethyl)-3-fluoro-13-isobutyl-12-methyl-7,11,14,20-tetraoxo-7,8,9,10,11,12,13,14,17,18,19,19a,20,21,22,23-hexadecahydro-16H-pyrido[2′,11:6,7][1]oxa[4,7,10,14]tetraazacycloheptadecino[17,16-c]quinoline-9-carboxamide] | 198 | 308 | – | – | –
2 | CC(C)C[C@H]1C(=O)N(C)C2(CC2)C(=O)N[C@H](Cc2ccccc2)COc2cnc3ccccc3c2C(=O)N[C@H](C(=O)NCCc2noc(C3CC3)n2)CC(=O)N1C [Example 115, (3′S,7′S,13′R)-13′-benzyl-N-(2-(5-cyclopropyl-1,2,4-oxadiazol-3-yl)ethyl)-7′-isobutyl-6′,9′-dimethyl-1′,5′,8′,11′-tetraoxo-2′,3′,4′,5′,6′,7′,8′,9′,11′,12′,13′,14′-dodecahydro-1′H-spiro[cyclopropane-1,10′-[1]oxa[4,7,10,14]tetraazacycloheptadecino[17,16-c]quinoline]-3′-carboxamide] | – | – | 380 | 250 | –
3 | CC(C)C[C@H]1C(=O)N(C)[C@@H](Cc2nc(-c3ccc(F)cn3)no2)C(=O)N[C@H](Cc2ccccc2)COc2cnc3ccc(F)cc3c2C(=O)N[C@H](C(=O)NCCc2noc(C3CC3)n2)CC(=O)N1C [Example 814, (3S,7S,10S,13R)-13-benzyl-N-(2-(5-cyclopropyl-1,2,4-oxadiazol-3-yl)ethyl)-20-fluoro-10-((3-(5-fluoropyridin-2-yl)-1,2,4-oxadiazol-5-yl)methyl)-7-isobutyl-6,9-dimethyl-1,5,8,11-tetraoxo-1,2,3,4,5,6,7,8,9,10,11,12,13,14-tetradecahydro-[1]oxa[4,7,10,14]tetraazacycloheptadecino[17,16-c]quinoline-3-carboxamide] | – | – | – | – | EC50 (F508del-CFTR cell surface expression, U2OS cells, 16h compound incubation, geomean of several measurements): 631 nM; Emax (in relation to the Emax of the corrector lumacaftor (=100%), U2OS cells, 16h compound incubation, arithmetic mean): 242%
4 | CC(C)C[C@H]1C(=O)N(C)C2(CC2)C(=O)N[C@H](Cc2ccccc2)COc2cnc3ccccc3c2C(=O)N[C@H](C(=O)NCCc2cccc(-c3ncccn3)c2)CC(=O)N1C [Example 502, (3′S,7′S,13′R)-13′-benzyl-7′-isobutyl-6′,9′-dimethyl-1′,5′,8′,11′-tetraoxo-N-(3-(pyrimidin-2-yl)phenethyl)-2′,3′,4′,5′,6′,7′,8′,9′,11′,12′,13′,14′-dodecahydro-1′H-spiro[cyclopropane-1,10′-[1]oxa[4,7,10,14]tetraazacycloheptadecino[17,16-c]quinoline]-3′-carboxamide] | 752 | 295 | – | – | –
5 | CC(C)C[C@H]1C(=O)N(C)CC(=O)N[C@H](Cc2ccccc2)COc2cc3c(cc2C(=O)N[C@H](C(=O)NCCc2ccc4c(c2)OCO4)CC(=O)N1C)OCO3 [Example 223, (7R,13S,17S)-N-(2-(benzo[d][1,3]dioxol-5-yl)ethyl)-7-benzyl-13-isobutyl-11,14-dimethyl-9,12,15,19-tetraoxo-6,7,8,9,10,11,12,13,14,15,16,17,18,19-tetradecahydro-[1,3]dioxolo[4′,5′:4,5]benzo[1,2-p][1]oxa[4,7,10,14]tetraazacycloheptadecine-17-carboxamide] | – | – | 388 | 141 | –
6 | CC(C)C[C@H]1C(=O)N2CCCC[C@@H]2C(=O)N[C@H](Cc2ccccc2)COc2cnc3ccccc3c2C(=O)N[C@H](C(=O)NCCc2cc(F)cc(F)c2)CC(=O)N1C [Example 126, (9S,13S,19aR,22R)-22-benzyl-N-(3,5-difluorophenethyl)-13-isobutyl-12-methyl-7,11,14,20-tetraoxo-7,8,9,10,11,12,13,14,17,18,19,19a,20,21,22,23-hexadecahydro-16H-pyrido[2′,1′:6,7][1]oxa[4,7,10,14]tetraazacycloheptadecino[17,16-c]quinoline-9-carboxamide] | – | – | 261 | 230 | –
7 | COCCOCCNC(=O)[C@@H]1CC(=O)N(C)[C@@H](CC(C)C)C(=O)N(CCC2CCCCC2)CC(=O)N[C@H](Cc2ccccc2)COc2cccc(OC)c2C(=O)N1 [Example 22, (3R,9S,13S)-3-benzyl-7-(2-cyclohexylethyl)-9-isobutyl-16-methoxy-N-(2-(2-methoxyethoxy)ethyl)-10-methyl-5,8,11,15-tetraoxo-2,3,4,5,6,7,8,9,10,11,12,13,14,15-tetradecahydrobenzo[p][1]oxa[4,7,10,14]tetraazacycloheptadecine-13-carboxamide] | – | – | 600 | 104 | –
8 | Cc1cc(CCNC(=O)[C@@H]2CC(=O)N(C)[C@@H](CC3CCCC3)C(=O)N3CCCC[C@@H]3C(=O)N[C@H](Cc3ccccc3)COc3ccc4nc(C)oc4c3C(=O)N2)on1 [Example 436, (8S,12S,18aR,21R)-21-benzyl-12-(cyclopentylmethyl)-4,11-dimethyl-N-(2-(3-methylisoxazol-5-yl)ethyl)-6,10,13,19-tetraoxo-6,7,8,9,10,11,12,13,16,17,18,18a,19,20,21,22-hexadecahydro-15H-oxazolo[4′,5′:5,6]benzo[1,2-p]pyrido[2,1-f][1]oxa[4,7,10,14]tetraazacycloheptadecine-8-carboxamide] | 458 | 300 | – | – | –
9 | COc1cccc(CCNC(=O)[C@@H]2CC(=O)N(C)[C@@H](CC(C)C)C(=O)N3CCCC[C@@H]3C(=O)N[C@H](Cc3ccccc3)COc3cnc4ccccc4c3C(=O)N2)c1OC [Example 81, (9S,13S,19aR,22R)-22-benzyl-N-(2,3-dimethoxyphenethyl)-13-isobutyl-12-methyl-7,11,14,20-tetraoxo-7,8,9,10,11,12,13,14,17,18,19,19a,20,21,22,23-hexadecahydro-16H-pyrido[2′,11:6,7][1]oxa[4,7,10,14]tetraazacycloheptadecino[17,16-c]quinoline-9-carboxamide] | – | – | 233 | 232 | –
10 | COc1ccc2c(c1)C(=O)N[C@H](C(=O)NCCc1ccc3c(c1)OCO3)CC(=O)N(C)[C@@H](CC(C)C)C(=O)N(C)CC(=O)N[C@H](Cc1ccccc1)CO2 [Example 228, (3R,9S,13S)-N-(2-(benzo[d][1,3]dioxol-5-yl)ethyl)-3-benzyl-9-isobutyl-17-methoxy-7,10-dimethyl-5,8,11,15-tetraoxo-2,3,4,5,6,7,8,9,10,11,12,13,14,15-tetradecahydrobenzo[p][1]oxa[4,7,10,14]tetraazacycloheptadecine-13-carboxamide] | – | – | 460 | 190 | –
11 | Cc1cc(CCNC(=O)[C@@H]2CC(=O)N(C)[C@@H](CC(C)C)C(=O)N(C)C3(CC3)C(=O)N[C@H](Cc3ccccc3)COc3cnc4c(F)cccc4c3C(=O)N2)on1 [Example 440, (3′S,7′S,13′R)-13′-benzyl-18′-fluoro-7′-isobutyl-6′,9′-dimethyl-N-(2-(3-methylisoxazol-5-yl)ethyl)-1′,5′,8′,11′-tetraoxo-2′,3′,4′,5′,6′,7′,8′,9′,11′,12′,13′,14′-dodecahydro-1′H-spiro[cyclopropane-1,10′-[1]oxa[4,7,10,14]tetraazacycloheptadecino[17,16-c]quinoline]-3′-carboxamide] | 788 | 296 | – | – | –
12 | COc1cccc(CCNC(=O)[C@@H]2CC(=O)N(C)[C@@H](CC(C)C)C(=O)N3CCCC[C@@H]3C(=O)N[C@H](Cc3ccccc3)COc3c[n+]([O-])c4ccccc4c3C(=O)N2)c1 [Example 760, (9S,13S,19aR,22R)-22-Benzyl-13-isobutyl-9-((3-methoxyphenethyl)carbamoyl)-12-methyl-7,11,14,20-tetraoxo-7,8,9,10,11,12,13,14,17,18,19,19a,20,21,22,23-hexadecahydro-16H-pyrido[2′,1′:6,7][1]oxa[4,7,10,14]tetraazacycloheptadecino[17,16-c]quinoline 2-oxide] | 723 | 333 | – | – | –
13 | COc1cccc2c1C(=O)N[C@H](C(=O)NCCc1ccc3c(c1)CCCO3)CC(=O)N(C)[C@@H](CC(C)C)C(=O)N(CCC1CCCCC1)CC(=O)N[C@H](Cc1ccccc1)CO2 (mixture of isomers) [Example 11, (3R,9S,13RS)-3-benzyl-N-(2-(chroman-6-yl)ethyl)-7-(2-cyclohexylethyl)-9-isobutyl-16-methoxy-10-methyl-5,8,11,15-tetraoxo-2,3,4,5,6,7,8,9,10,11,12,13,14,15-tetradecahydrobenzo[p][1]oxa[4,7,10,14]tetraazacycloheptadecine-13-carboxamide] | – | – | 182 | – | –
14 | CC(C)C[C@H]1C(=O)N2CCN(C3CCC3)C[C@H]2C(=O)N[C@H](Cc2ccccc2)COc2cnc3ccccc3c2C(=O)N[C@H](C(=O)NCCc2ccc3c(c2)OCO3)CC(=O)N1C [Example 394, (9S,13S,19aS,22R)-N-(2-(benzo[d][1,3]dioxol-5-yl)ethyl)-22-benzyl-18-cyclobutyl-13-isobutyl-12-methyl-] | – | – | 262 | 151 | –
15 | CC(C)C[C@H]1C(=O)N(CCC2CCC3(CCC3)O2)CC(=O)N[C@H](Cc2ccccc2)COc2ccc3ccccc3c2C(=O)N[C@H](C(=O)NCCc2ccc3c(c2)OCO3)CC(=O)N1C (stereo partly drawn) [Example 331, (3S,7S,13R)-9-(2-(5-oxaspiro[3.4]octan-6-yl)ethyl)-N-(2-(benzo[d][1,3]dioxol-5-yl)ethyl)-13-benzyl-7-isobutyl-6-methyl-1,5,8,11-tetraoxo-1,2,3,4,5,6,7,8,9,10,11,12,13,14-tetradecahydronaphtho[1,2-p][1]oxa[4,7,10,14]tetraazacycloheptadecine-3-carboxamide] | – | – | 121 | 240 | –
